Experimental data from patent US20210196673A1 (priority 2018, published 2021).
Converted amounts (≈) assume the structure as drawn. Where two headings read alike, the source gives them in different places.

Legend:
[1] = target: SARS-CoV 3C-like protease (3CLPro) (Severe acute respiratory syndrome coronavirus, UniProt P0C6X7); conditions: cited from earlier work
Vero cells = experiment: Primary CPE assay in Vero cells (cytotoxicity, CC50); assay type: cell-based
[2] = Stability of powder and liquid forms; assay type: physicochemical; conditions: for stability of powder form on storage: 5° C.
SARS-CoV-2 [3] = experiment: Secondary VYR (virus yield reduction) assay in Caco-2 cells; assay type: cell-based
Description: The secondary VYR assay in Caco-2 cells: Near-confluent cell culture monolayers of Caco-2 cells were prepared in 96-well disposable microplates the day before testing. Cells were maintained in MEM supplemented with 10% FBS. The same medium was used for antiviral assays and FBS was reduced to 2%, supplemented with 50-μg/ml gentamicin. EGCG was dissolved in serum-free MEM in a series of 2×dilutions from 100 μg/ml to 0.78 μg/ml. The EGCG diliutions were mixed and incubated with SARS-CoV-2 at 200 CCID50 (50% cell culture infectious dose) in 0.1 ml volume for 1 h prior to adding to the cell culture for 1 h absorption. Following absorption, the unabsorbed SARS-CoV-2 along with medium/EGCG was removed and fresh MEM was added to the cell culture for viral yield detection in comparison to untreated infection control. Five microwells were used per dilution: three for infected cultures and two for uninfected toxicity cultures. Controls for the experiment consist of six microwells that were infected and not treated (virus controls) and six that were untreated and uninfected (cell controls) on every plate. Medium devoid of virus was placed in toxicity control wells and cell control wells. Plates were incubated at 37° C. with 5% CO2 for 72 hours. A sample of supernatant was taken from each infected well (three replicate wells were pooled) and tested immediately. To evaluate toxicity, the plates were stained with 0.011% neutral red dye for approximately two hours at 37° C. in a 5% CO2 incubator. The neutral red medium was removed by complete aspiration, and the cells were rinsed 1× with phosphate buffered solution (PBS) to remove residual dye. The PBS is completely removed, and the incorporated neutral red was eluted with 50% Sorensen's citrate buffer/50% ethanol for at least 30 minutes. As larger the number of viable cells present in the wells, when the neutral red dye penetrated into the living cells, the more intense the red color appeared. The dye content in each well was quantified using a spectrophotometer at 540 nm wavelength. The dye content in each set of wells was converted to a percentage of dye present in untreated control wells using a Microsoft Excel computer-based spreadsheet and normalized based on the virus control. The 50% cytotoxic (CC50, cell-inhibitory) concentrations were then calculated by regression analysis.
The VYR test indicates how much EGCG inhibits virus entry and replication. Virus yielded in the presence of EGCG was titrated and compared to virus titers from the untreated virus controls. Titration of the viral samples (collected as described in the paragraph above) was performed by endpoint dilution (Reed-Muench method). Serial 1/10 dilutions of virus were made and plated into 4 replicate wells containing fresh cell monolayers of Vero 76 cells. Plates were then incubated, and cells were scored for the presence or absence of virus after distinct CPE was observed. The TCID50 values were calculated using the Reed-Muench method. The 90% (one log10) effective concentration (EC90) was calculated by regression analysis by plotting the log10 of the inhibitor concentration versus log10 of virus produced at each concentration. The quotient of CC50 divided by EC90 gave the selectivity index (SI) value. Compounds showing SI values ≥10 are considered active.

influenza virus = conditions: cited from earlier work
SARS-CoV-2 [4] = experiment: Primary CPE assay in Vero cells (antiviral)
[5] = target: transmembrane protease serine 2 (TMPRSS2) (Homo sapiens, UniProt O15393); conditions: in vitro study; cited from earlier work
[6] = target: SARS-CoV nucleocapsid (N) protein (Severe acute respiratory syndrome coronavirus, UniProt P59595); conditions: cited from earlier work
H1N1 virus [7] = assay type: cell-based, influenza A virus
H1N1 virus [8] = test system: H1N1 virus
H1N1 virus [9] = test system: H1N1 virus; remark: listed apart in the source
H1N1 virus [10] = assay type: cell-based, influenza A virus; remark: listed apart in the source
MDCK cells = experiment: Cell viability, MTT assay; assay type: cell-based; conditions: 1 hour incubation
Description: Cell Viability: This experiment tested if EC16 formulations were associated with cytotoxicity in MDCK cells. MDCK cells were cultured in a 96 well plate until confluent. MEM serum free medium, MEM medium with 10% carrier and 20% carrier (carrier controls), or MEM medium containing 0.1% EC16 and 10% or 20% carrier was added to the wells followed by a 1 hour incubation at 35° C. with 5% CO2. The medium was then changed to 200 μl fresh MEM serum free medium with 0.2 μg/ml trypsin in each well and incubated overnight under the same condition. The plate was removed from the cell culture incubator and an MTT assay was performed according to a method described previously (Yamamoto, T., et al., Anticancer Research, 24:3065-3073 (2004)).

H1N1 virus [11] = assay type: cell-based, influenza A virus; remark: listed apart in the source
[12] = EGCG 50 μg/ml (0.005%), Caco-2 cells
[13] = EGCG 100 μg/ml (0.01%), Caco-2 cells

Sequence of transmembrane protease serine 2 (TMPRSS2) (O15393 whole entry): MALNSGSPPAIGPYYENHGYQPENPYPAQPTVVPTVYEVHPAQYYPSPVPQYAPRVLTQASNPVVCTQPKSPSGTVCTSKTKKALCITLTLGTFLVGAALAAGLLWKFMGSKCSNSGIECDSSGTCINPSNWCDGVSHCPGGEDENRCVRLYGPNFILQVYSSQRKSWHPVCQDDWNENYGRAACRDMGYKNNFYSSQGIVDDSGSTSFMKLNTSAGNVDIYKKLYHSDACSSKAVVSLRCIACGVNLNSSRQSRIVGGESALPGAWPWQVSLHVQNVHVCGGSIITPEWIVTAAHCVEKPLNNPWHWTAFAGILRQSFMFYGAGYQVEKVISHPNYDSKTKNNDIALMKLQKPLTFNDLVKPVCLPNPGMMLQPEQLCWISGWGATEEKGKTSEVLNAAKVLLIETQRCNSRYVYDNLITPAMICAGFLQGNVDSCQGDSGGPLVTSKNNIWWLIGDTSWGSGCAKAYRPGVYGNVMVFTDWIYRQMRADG
Sequence of SARS-CoV nucleocapsid (N) protein (P59595 whole entry, looked up): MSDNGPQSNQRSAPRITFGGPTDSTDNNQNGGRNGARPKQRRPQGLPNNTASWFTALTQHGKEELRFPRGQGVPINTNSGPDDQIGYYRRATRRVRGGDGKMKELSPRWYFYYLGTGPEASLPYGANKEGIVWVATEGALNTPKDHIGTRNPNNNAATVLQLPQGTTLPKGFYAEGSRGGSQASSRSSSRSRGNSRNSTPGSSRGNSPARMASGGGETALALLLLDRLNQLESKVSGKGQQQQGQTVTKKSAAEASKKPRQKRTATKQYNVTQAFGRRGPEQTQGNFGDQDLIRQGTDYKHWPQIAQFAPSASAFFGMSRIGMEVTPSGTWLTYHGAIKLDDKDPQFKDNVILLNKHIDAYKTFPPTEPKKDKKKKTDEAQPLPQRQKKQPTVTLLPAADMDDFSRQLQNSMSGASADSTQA

In the case of `O=C(O[C@@H]1Cc2c(O)cc(O)cc2O[C@@H]1c1cc(O)c(O)c(O)c1)c1cc(O)c(O)c(O)c1` [EGCG, (−)-epigallocatechin-3-gallate], the “inhibition of 3C^pro activity” value [1] is listed as 80%, the “inhibition of SARS-CoV 3C-like protease” value [1] is listed as “significantly inhibited” and the “CC50 (NR)” value (Vero cells; neutral red (NR) readout) is listed as 2.3 µg/mL (≈ 5.02 µM). For the same compound, the “CC50 (VIS)” value (Vero cells; visual (VIS) readout) was 3.2 µg/mL (≈ 6.98 µM), the “CC50 (cytotoxicity)” value (Caco-2 cells; Caco-2 cells, neutral red, value of b285) was greater than 100 µg/mL and the CC50 (Caco-2 cells; Neutral Red (Toxicity) assay, value of b289) was greater than 100 µg/mL. For the same compound, the “stability in aqueous solution” value ([2]; aqueous solution) was “not stable”, the “stability in dry powder form” value [2] was “stable” and the “stability of powder form on storage” value [2] was “stable at 5 °C for two years”. For the same compound, the “concentration that inhibited 90% of viral yield (EC90)” value (SARS-CoV-2 [3]; Caco-2 cells, value of b285) was 28 µg/mL, the “reduction in virus titer” value (SARS-CoV-2 [3]; [12]) was 1.8 log 10 and the “reduction of viral yield” value (SARS-CoV-2 [3]; [12]) was 98.41%. The “reduction in virus titer” value (SARS-CoV-2 [3]; [13]) was greater than 3.6 log 10, the “reduction of viral yield” value (SARS-CoV-2 [3]; [13]) was greater than 99.975% and the antiviral activity (SARS-CoV-2 [3]; EGCG at or lower than 25 μg/ml (0.0025%), Caco-2 cells) was “the activity was not detected”. For the same compound, the “Viral titer of EGCG treated TCID50 values” (SARS-CoV-2 [3]; concentration 0.78 μg/ml) was 5.3 lon10, the “Viral titer of EGCG treated TCID50 values” (SARS-CoV-2 [3]; concentration 1.56 μg/ml) was 5.0 lon10 and the “Viral titer of EGCG treated TCID50 values” (SARS-CoV-2 [3]; concentration 3.13 μg/ml) was 5.0 lon10. The “Viral titer of EGCG treated TCID50 values” (SARS-CoV-2 [3]; concentration 6.25 μg/ml) was 5.5 lon10, the “Viral titer of EGCG treated TCID50 values” (SARS-CoV-2 [3]; concentration 12.5 μg/ml) was 5.3 lon10 and the “Viral titer of EGCG treated TCID50 values” (SARS-CoV-2 [3]; concentration 25 μg/ml) was 5.0 lon10. For the same compound, the “Viral titer of EGCG treated TCID50 values” (SARS-CoV-2 [3]; concentration 50 μg/ml) was 3.5 lon10, the “Viral titer of EGCG treated TCID50 values” (SARS-CoV-2 [3]; concentration 100 μg/ml) was less than 1.7 lon10 and the “SIgo (CC50/EC90)” value (SARS-CoV-2 [3]; selectivity index) was greater than 23. For the same compound, the “effect of direct contact with influenza virus” value (influenza virus; direct contact of EGCG with virus, cell culture) was “inactivation of viral infectivity”, the “anti-viral activity after pre-incubation of cells” value (influenza virus; pre-incubation of cells with EGCG, no contact with the virus) was “does not show anti-viral activity” and the “EC50, inhibition of CPE (NR)” value (SARS-CoV-2 [4]; neutral red (NR) readout) was 0.27 µg/mL. For the same compound, the “EC50, inhibition of CPE (VIS)” value (SARS-CoV-2 [4]; visual (VIS) readout) was 0.23 µg/mL and the “inhibition of TMPRSS2” value [5] was “inhibited TMPRSS2”.
For `O=C(O[C@@H]1Cc2c(O)cc(O)cc2O[C@H]1c1cc(O)c(O)c(O)c1)c1cc(O)c(O)c(O)c1` [GCG, gallocatechin gallate], the “inhibitory effect against SARS-CoV nucleocapsid (N) protein” value [6] is listed as “remarkable inhibitory effect” and the “inhibition of SARS-CoV 3C-like protease” value [1] is listed as “significantly inhibited”.
With “(−)-epigallocatechin-3-gallate-palmitate [EC16]” the “cells protected from H1N1 infection” value (H1N1 virus [7]; 0.05% EC16, washed and 1 hour without EC16) was 90%, the “block of H1N1 infection” value (H1N1 virus [7]; 0.1% EC16, 2 hours after first application, washed and 1 hour without EC16) was “almost completely blocked” and the “remaining viability (infectivity), mean” value (H1N1 virus [8]; 0.01% EC16 in 10% carrier, 10 minutes) was 48.4%±46.4. The “infectivity, mean % of control” value (H1N1 virus [8]; 0.01% EC16 in 20% carrier, 30 minutes) was 7.6%±7.2, the “infectivity, mean % of control” value (H1N1 virus [8]; 0.1% EC16 in 10% carrier, 10 minutes) was 9.5%±1.4 and the “infectivity, mean % of control” value (H1N1 virus [8]; 0.1% EC16 in 20% carrier, 10 minutes) was 12.1%±5.8. For the same compound, the “infectivity, mean % of control” value (H1N1 virus [8]; 0.1% EC16 in 20% carrier, 30 minutes) was 0.9%±0.7, the “viral titer (viability), % of control” value (H1N1 virus [9]; 0.01% EC16 in 10% carrier, 1 hour pre-treatment, n=4) was 100% and the “infectivity, % of control” value (H1N1 virus [9]; 0.01% EC16 in 20% carrier, 1 hour pre-treatment) was 2.3%±0.9. The “infectivity, % of control” value (H1N1 virus [9]; 0.1% EC16 in 10% carrier, 1 hour pre-treatment) was 10.5%±3.6, the reduction in titer (H1N1 virus [9]; 0.1% EC16 in 20% carrier) was 42 fold and the “infectivity, % of control” value (H1N1 virus [9]; 0.1% EC16 in 20% carrier, 1 hour pre-treatment, n=7) was 2.4%±1.6. The “viral titer in comparison to control” value (H1N1 virus [9]; EC16 0 to 0.1% in 2% DMSO instead of carrier) was “did not result in a statistically significant difference”, the “stability in dry powder form” value [2] was “stable” and the “stability in proper liquid formulations” value ([2]; liquid formulations) was “stable”. For the same compound, the “stability of powder form on storage” value [2] was “stable at 5 °C for two years”, the “viral TCID50, % of control” value (H1N1 virus [10]) was 15.4%±15.2 and the “cell viability (MTT) versus MEM control” value (MDCK cells; 0.1% EC16 in 10% carrier) was “not statistically different from the MEM control”. The “cell viability (MTT) versus MEM control” value (MDCK cells; 0.1% EC16 in 20% carrier) was “not statistically different from the MEM control”, the “H1N1 infectivity, % of control” value (H1N1 virus [11]; 0.01% EC16 in 10% carrier, 1 minute contact, n=3) was 20.5%±17.1 and the “H1N1 infectivity, % of control” value (H1N1 virus [11]; 0.01% EC16 in 20% carrier, separate experiments) was 7.3%±9.2. The “H1N1 infectivity, % of control” value (H1N1 virus [11]; 0.1% EC16 in 10% carrier, 1 minute contact, first three replicates) was 6.1%±3.0, the “H1N1 infectivity, % of control” value (H1N1 virus [11]; 0.1% EC16 in 10% carrier, additional three replicate experiments) was 3.8%±1.5 and the “H1N1 infectivity, % of control” value (H1N1 virus [11]; 0.1% EC16 in 10% carrier, overall mean (n=6)) was 5.0%±2.4. The “H1N1 infectivity, % of control” value (H1N1 virus [11]; 0.1% EC16 in 20% carrier, 1 minute contact) was 2.4%±1.1.
